Assay results: PubChem BioAssay AID1963838 (Molecular Pharmacology Branch, DTP, NCI, 2024)

System: 855422-203-R-J1-PDC complex spheroid viability
Experiment: Anticancer human tumor 855422-203-R-J1-PDC patient-derived bladder carcinoma cell line growth inhibition [POLQ]
Details: for IC50: curve of first compound; for viability, T/C: stronger effect = lower value
In short: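 PDC + HUVEC + MSC complex spheroids; POLQ inhibitors ± partner drugs; top conc. at/near clinical Cmax, else 10 microM (SN-38 1 microM), half-log dilutions; 37 degrees C, 5% CO2.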

[1] = second compound 0.0316 µM, first compound 0.00316 µM
[2] = second compound 0.0316 µM, first compound 0.01 µM
[3] = second compound 0.0316 µM, first compound 0.0316 µM
[4] = second compound 0.0316 µM, first compound 0.1 µM
[5] = second compound 0.0316 µM, first compound 0.316 µM
[6] = second compound 0.0316 µM, first compound 1 µM
[7] = second compound 0.1 µM, first compound 0.00316 µM
[8] = second compound 0.1 µM, first compound 0.01 µM
[9] = second compound 0.1 µM, first compound 0.0316 µM
[10] = second compound 0.1 µM, first compound 0.1 µM
[11] = second compound 0.1 µM, first compound 0.316 µM
[12] = second compound 0.1 µM, first compound 1 µM
[13] = second compound 0.316 µM, first compound 0.00316 µM
[14] = second compound 0.316 µM, first compound 0.01 µM
[15] = second compound 0.316 µM, first compound 0.0316 µM
[16] = second compound 0.316 µM, first compound 0.1 µM
[17] = second compound 0.316 µM, first compound 0.316 µM
[18] = second compound 0.316 µM, first compound 1 µM
[19] = second compound 1 µM, first compound 0.00316 µM
[20] = second compound 1 µM, first compound 0.01 µM
[21] = second compound 1 µM, first compound 0.0316 µM
[22] = second compound 1 µM, first compound 0.1 µM
[23] = second compound 1 µM, first compound 0.316 µM
[24] = second compound 1 µM, first compound 1 µM
[25] = second compound 3.16 µM, first compound 0.00316 µM
[26] = second compound 3.16 µM, first compound 0.01 µM
[27] = second compound 3.16 µM, first compound 0.0316 µM
[28] = second compound 3.16 µM, first compound 0.1 µM
[29] = second compound 3.16 µM, first compound 0.316 µM
[30] = second compound 3.16 µM, first compound 1 µM
[31] = second compound 10 µM, first compound 0.00316 µM
[32] = second compound 10 µM, first compound 0.01 µM
[33] = second compound 10 µM, first compound 0.0316 µM
[34] = second compound 10 µM, first compound 0.1 µM
[35] = second compound 10 µM, first compound 0.316 µM
[36] = second compound 10 µM, first compound 1 µM
[37] = second compound 0.0316 µM, first compound 3.16 µM
[38] = second compound 0.0316 µM, first compound 10 µM
[39] = second compound 0.1 µM, first compound 3.16 µM
[40] = second compound 0.1 µM, first compound 10 µM
[41] = second compound 0.316 µM, first compound 3.16 µM
[42] = second compound 0.316 µM, first compound 10 µM
[43] = second compound 1 µM, first compound 3.16 µM
[44] = second compound 1 µM, first compound 10 µM
[45] = second compound 3.16 µM, first compound 3.16 µM
[46] = second compound 3.16 µM, first compound 10 µM
[47] = second compound 10 µM, first compound 3.16 µM
[48] = second compound 10 µM, first compound 10 µM
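Further: spheroids exposed to compounds for seven days before readout.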

C=CCn1c(=O)c2cnc(Nc3ccc(N4CCN(C)CC4)cc3)nc2n1-c1cccc(C(C)(C)O)n1 + COC1C(OC(N)=O)C(O)C(Oc2ccc3c(O)c(NC(=O)c4ccc(O)c(CC=C(C)C)c4)c(=O)oc3c2C)OC1(C)C
IC50 (second compound 0.0316 µM): > 1 µM
IC50 (second compound 0.1 µM): > 1 µM
IC50 (second compound 0.316 µM): > 1 µM
IC50 (second compound 1 µM): > 1 µM
IC50 (second compound 3.16 µM): > 1 µM
IC50 (second compound 10 µM): > 1 µM
viability, T/C [1]: 90.6%
viability, T/C [2]: 93.2%
viability, T/C [3]: 96.4%
viability, T/C [4]: 94.5%
viability, T/C [5]: 92.1%
viability, T/C [6]: 101%
viability, T/C [7]: 95.9%
viability, T/C [8]: 94.3%
viability, T/C [9]: 91.9%
viability, T/C [10]: 107%
viability, T/C [11]: 105%
viability, T/C [12]: 99.7%
viability, T/C [13]: 98.7%
viability, T/C [14]: 103%
viability, T/C [15]: 95.9%
viability, T/C [16]: 106%
viability, T/C [17]: 109%
viability, T/C [18]: 103%
viability, T/C [19]: 91.5%
viability, T/C [20]: 110%
viability, T/C [21]: 102%
viability, T/C [22]: 98.9%
viability, T/C [23]: 103%
viability, T/C [24]: 93.1%
viability, T/C [25]: 107%
viability, T/C [26]: 95.4%
viability, T/C [27]: 94.1%
viability, T/C [28]: 102%
viability, T/C [29]: 113%
viability, T/C [30]: 91.9%
viability, T/C [31]: 105%
viability, T/C [32]: 104%
viability, T/C [33]: 101%
viability, T/C [34]: 96%
viability, T/C [35]: 94.2%
viability, T/C [36]: 90%

CCCS(=O)(=O)Nc1ccc(F)c(C(=O)c2c[nH]c3ncc(-c4ccc(Cl)cc4)cc23)c1F + COC1C(OC(N)=O)C(O)C(Oc2ccc3c(O)c(NC(=O)c4ccc(O)c(CC=C(C)C)c4)c(=O)oc3c2C)OC1(C)C
IC50 (second compound 0.0316 µM): 5.93 µM
IC50 (second compound 0.1 µM): 5.85 µM
IC50 (second compound 0.316 µM): 5.94 µM
IC50 (second compound 1 µM): 5.47 µM
IC50 (second compound 3.16 µM): 5.74 µM
IC50 (second compound 10 µM): 5.88 µM
viability, T/C [3]: 112%
viability, T/C [4]: 94.6%
viability, T/C [5]: 113%
viability, T/C [6]: 116%
viability, T/C [37]: 113%
viability, T/C [38]: 0.27%
viability, T/C [9]: 117%
viability, T/C [10]: 108%
viability, T/C [11]: 115%
viability, T/C [12]: 107%
viability, T/C [39]: 106%
viability, T/C [40]: 1.29%
viability, T/C [15]: 118%
viability, T/C [16]: 96.7%
viability, T/C [17]: 114%
viability, T/C [18]: 107%
viability, T/C [41]: 109%
viability, T/C [42]: 1.4%
viability, T/C [21]: 119%
viability, T/C [22]: 117%
viability, T/C [23]: 108%
viability, T/C [24]: 94.2%
viability, T/C [43]: 98.7%
viability, T/C [44]: 0.24%
viability, T/C [27]: 102%
viability, T/C [28]: 111%
viability, T/C [29]: 110%
viability, T/C [30]: 118%
viability, T/C [45]: 103%
viability, T/C [46]: 0.36%
viability, T/C [33]: 108%
viability, T/C [34]: 108%
viability, T/C [35]: 96.2%
viability, T/C [36]: 116%
viability, T/C [47]: 110%
viability, T/C [48]: 0.68%

CNCc1ccc(-c2[nH]c3cc(F)cc4c3c2CCNC4=O)cc1 + COC1C(OC(N)=O)C(O)C(Oc2ccc3c(O)c(NC(=O)c4ccc(O)c(CC=C(C)C)c4)c(=O)oc3c2C)OC1(C)C
IC50 (second compound 0.0316 µM): > 10 µM
IC50 (second compound 0.1 µM): > 10 µM
IC50 (second compound 0.316 µM): > 10 µM
IC50 (second compound 1 µM): > 10 µM
IC50 (second compound 3.16 µM): > 10 µM
IC50 (second compound 10 µM): > 10 µM
viability, T/C [3]: 93.5%
viability, T/C [4]: 104%
viability, T/C [5]: 125%
viability, T/C [6]: 106%
viability, T/C [37]: 107%
viability, T/C [38]: 105%
viability, T/C [9]: 110%
viability, T/C [10]: 108%
viability, T/C [11]: 98%
viability, T/C [12]: 109%
viability, T/C [39]: 100%
viability, T/C [40]: 110%
viability, T/C [15]: 91.3%
viability, T/C [16]: 97.8%
viability, T/C [17]: 99.5%
viability, T/C [18]: 104%
viability, T/C [41]: 105%
viability, T/C [42]: 118%
viability, T/C [21]: 104%
viability, T/C [22]: 107%
viability, T/C [23]: 110%
viability, T/C [24]: 107%
viability, T/C [43]: 117%
viability, T/C [44]: 104%
viability, T/C [27]: 106%
viability, T/C [28]: 92%
viability, T/C [29]: 112%
viability, T/C [30]: 109%
viability, T/C [45]: 104%
viability, T/C [46]: 109%
viability, T/C [33]: 110%
viability, T/C [34]: 101%
viability, T/C [35]: 111%
viability, T/C [36]: 106%
viability, T/C [47]: 93.2%
viability, T/C [48]: 97.4%

COc1cccc(OCCCN)c1-c1cc(Nc2cnc(C#N)cn2)n[nH]1 + COC1C(OC(N)=O)C(O)C(Oc2ccc3c(O)c(NC(=O)c4ccc(O)c(CC=C(C)C)c4)c(=O)oc3c2C)OC1(C)C
IC50 (second compound 0.0316 µM): 0.0194 µM
IC50 (second compound 0.1 µM): 0.016 µM
IC50 (second compound 0.316 µM): 0.02 µM
IC50 (second compound 1 µM): 0.016 µM
IC50 (second compound 3.16 µM): 0.0161 µM
IC50 (second compound 10 µM): 0.016 µM
viability, T/C [1]: 98.3%
viability, T/C [2]: 90%
viability, T/C [3]: 20.3%
viability, T/C [4]: 8.97%
viability, T/C [5]: 6.7%
viability, T/C [6]: 6.14%
viability, T/C [7]: 102%
viability, T/C [8]: 69%
viability, T/C [9]: 22.4%
viability, T/C [10]: 8.69%
viability, T/C [11]: 5.66%
viability, T/C [12]: 4.71%
viability, T/C [13]: 109%
viability, T/C [14]: 101%
viability, T/C [15]: 16.4%
viability, T/C [16]: 7.64%
viability, T/C [17]: 6.06%
viability, T/C [18]: 5.18%
viability, T/C [19]: 118%
viability, T/C [20]: 75.1%
viability, T/C [21]: 13.6%
viability, T/C [22]: 6.95%
viability, T/C [23]: 5.24%
viability, T/C [24]: 5.12%
viability, T/C [25]: 109%
viability, T/C [26]: 74.9%
viability, T/C [27]: 14.5%
viability, T/C [28]: 7.77%
viability, T/C [29]: 5.93%
viability, T/C [30]: 8.32%
viability, T/C [31]: 107%
viability, T/C [32]: 74.2%
viability, T/C [33]: 15%
viability, T/C [34]: 8.46%
viability, T/C [35]: 7.19%
viability, T/C [36]: 4.54%
